In experiment [1] the test system is Spodoptera littoralis. The experiment in a line: Insecticidal activity in Spodoptera littoralis assessed as inhibition of larval growth at 530 ppm after 6 days by chronic feeding experiment. The class given is functional. The following applies: 144 h.
In experiment [2] the test system is Spodoptera littoralis. The experiment in a line: Insecticidal activity in Spodoptera littoralis assessed as inhibition of larval growth after 6 days by chronic feeding experiment. The class given is functional, organism-based.

In brackets after ≈: the same amount, converted by molar mass.

As for `CC1=C2C[C@H](C(C)(C)O)CC[C@H](C)[C@@H]2CC1=O` [HYDROXYCOLORENONE], the inhibition (commonly the change of the read-out against control, counted positive when it falls) at 530 ppm in the experiment on Spodoptera littoralis [1] came to 90%. Further, in the experiment on Spodoptera littoralis [2], the EC50 turned out to be 8.8 ppm. Moreover, the LC50 – broadly, the concentration lethal to half of the exposed cells or organisms – with Spodoptera littoralis [2] (Spodoptera littoralis, 144 h) was found to be 453 µg/mL (≈ 1920 µM).

The values above are taken from ChEMBL document CHEMBL1146402, “New Oxygenated Sesquiterpenes from the Indonesian Soft Coral Nephthea chabrolii” (J Nat Prod, 1997).
